Reference: paper PMC11861696, “The First K^+-Channel Blocker Described from Tityus fasciolatus Venom: The Purification, Molecular Cloning, and Functional Characterization of α-KTx4.9 (Tf5)” (Toxins, 2025)
Positions of bridges follow the written chain, without caps; N, C: chain ends. Residues, ends and D or L forms follow the SMILES beside them. No end group written: not given here.

Legend:
[1] = target: T1, Kv1.2 (Homo sapiens, UniProt P16389); conditions: cited from earlier work
T1 construct: expressed in transfected cells; host or cells: HEK293T
T1 sequence (P16389 whole entry): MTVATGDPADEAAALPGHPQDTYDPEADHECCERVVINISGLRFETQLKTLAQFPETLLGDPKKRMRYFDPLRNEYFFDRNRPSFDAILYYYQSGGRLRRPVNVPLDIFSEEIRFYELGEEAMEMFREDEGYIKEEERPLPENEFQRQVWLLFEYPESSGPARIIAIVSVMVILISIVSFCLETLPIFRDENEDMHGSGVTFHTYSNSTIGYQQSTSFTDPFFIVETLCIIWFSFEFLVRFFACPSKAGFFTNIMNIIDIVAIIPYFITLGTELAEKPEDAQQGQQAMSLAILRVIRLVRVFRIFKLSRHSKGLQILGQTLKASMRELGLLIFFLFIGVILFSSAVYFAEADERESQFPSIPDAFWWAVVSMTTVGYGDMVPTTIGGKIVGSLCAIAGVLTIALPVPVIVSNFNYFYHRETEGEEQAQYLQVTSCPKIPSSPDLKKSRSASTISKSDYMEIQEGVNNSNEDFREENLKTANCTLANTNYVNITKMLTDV

[2] = target: T2, Kv1.3 (Mus musculus, UniProt P16390); conditions: cited from earlier work
T2 construct: expressed in transfected cells; host or cells: L929
T2 sequence (P16390 whole entry): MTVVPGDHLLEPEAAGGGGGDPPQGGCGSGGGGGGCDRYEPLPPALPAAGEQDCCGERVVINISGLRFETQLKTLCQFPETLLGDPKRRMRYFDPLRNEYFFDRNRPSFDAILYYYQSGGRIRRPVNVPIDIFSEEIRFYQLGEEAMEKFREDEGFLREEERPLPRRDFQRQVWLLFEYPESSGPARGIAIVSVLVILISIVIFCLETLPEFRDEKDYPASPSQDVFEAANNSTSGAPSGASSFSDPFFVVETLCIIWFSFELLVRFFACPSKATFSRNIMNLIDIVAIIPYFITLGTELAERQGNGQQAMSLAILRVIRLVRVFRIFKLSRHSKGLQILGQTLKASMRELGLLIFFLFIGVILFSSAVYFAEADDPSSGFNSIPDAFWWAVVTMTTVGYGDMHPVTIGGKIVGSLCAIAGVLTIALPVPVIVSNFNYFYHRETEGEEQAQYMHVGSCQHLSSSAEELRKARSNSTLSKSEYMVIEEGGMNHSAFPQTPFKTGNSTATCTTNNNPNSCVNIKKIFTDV

[3] = system: A549 carcinoma cell; design: method as in PMID 21087602; conditions: cited from earlier work
[4] = target: T1, Kv1.2; assay: whole-cell patch-clamp, K+ current of Kv1.2 in HEK293T; type: cell-based
Description: (§1) Human Embrionary kidney HEK293T cells were grown in Dulbeccos’s Modified Eagle’s Medium (Sigma-Aldrich, St. Louis, MO, USA) supplemented with 10% fetal calf serum (GIBCO-ThermoFischer, Waltham, MA, USA) and 1% Antibiotic-Antimycotic® (GIBCO-ThermoFischer, Waltham, MA, USA). HEK293T cells were transfected with 1 μg of pcDNA3-Kv1.1, pcDNA3-Kv1.2, or pcDNA3-Kv1.4 and 0.1 μg of EGFP (Clontech Laboratories, Palo Alto, CA, USA) using Lipofectamine 3000 (ThermoFischer, Waltham, MA, USA). L929 cells expressing the Kv1.3 channel were grown in Dulbeccos’s Modified Eagle’s Medium (Sigma-Aldrich) supplemented with 10% fetal calf serum and 100 units/mL of penicillin and 10 µg/mL of streptomycin. Cells were grown in an incubator with a moist atmosphere and 5% CO2, at a constant temperature of 37 °C.
(§2) Potassium macrocurrents (IKs) were measured in whole-cell mode using a HEKA EPC 10 USB amplifier and controlled by PATCHMASTER software version 2x92 (HEKA Elektronik, Lambrecht, Germany). Experiments were performed at a room temperature of 23 °C. […]
(§3) The pipette (internal) solution contained (mM) KCl 140, MgCl2 2, CaCl2 1, EGTA 10, and HEPES 10, with a pH of 7.3 corrected with KOH and an experimental osmolarity of 337 mOsmol. […] The solutions’ osmolarity was measured with a K-7400S semi-micro osmometer (Knauer Berlin, Germany). […]

[5] = target: T2, Kv1.3; assay: whole-cell patch-clamp, K+ current of Kv1.3 in L929; type: cell-based
Description: as §1, §2, §3

Molecule	block of Kv1.2 [1]	block of Kv1.3 [2]	viability of A549 carcinoma cell cultures [3]	inhibition at 0.5 µM ([4]; HEK-293T, 500 nM Tf5, HEK293T transfected with pcDNA3-Kv1.2, whole-cell, stimulated at 30 mV over 200 ms from -80 mV, 23 °C, n = 9) [%]	IC50 ([4]; dose–response curve, Figure 5E, n ≥5 for each concentration, read-out: Log IC50 Kv1.2 (converted)) [nM]	inhibition at 0.5 µM ([5]; 500 nM Tf5, L929 cells expressing Kv1.3, whole-cell, stimulated at 30 mV over 200 ms from -80 mV, 23 °C, n = 7) [%]	IC50 ([5]; dose–response curve, Figure 5F, n ≥5 for each concentration, read-out: Log IC50 Kv1.3 (converted)) [nM]
MgTx: isolated from the scorpion Centruroides margaritatus, Kv1.2 and Kv1.3 blocker (TIINVKCTSPKQCLPPCKAQFGQSAGAKCMNGKCKCYPH; ends and bridges not checked; cysteine pairing not given here; UniProt P40755 1-39, looked up)	Kv1.2 and Kv1.3 blocker	Kv1.2 and Kv1.3 blocker	reduce the viability				
CC[C@H](C)[C@@H]1NC(=O)[C@H](C)NC(=O)[C@H](CCC(=O)O)NC(=O)[C@H](CCCCN)NC(=O)[C@@H]2CSSC[C@@H](C(=O)N[C@@H](Cc3ccc(O)cc3)C(=O)N3CCC[C@H]3C(=O)O)NC(=O)[C@H](CCCCN)NC(=O)[C@@H]3CSSC[C@H](NC(=O)[C@H](CCC(=O)O)NC(=O)[C@@H]4CCCN4C(=O)[C@H](CO)NC(=O)CNC(=O)[C@H](CCCNC(=N)N)NC(=O)[C@@H](NC(=O)[C@H](CCCNC(=N)N)NC(=O)[C@H](C)NC(=O)[C@H](CC(N)=O)NC(=O)[C@@H](NC(=O)[C@H](Cc4ccccc4)NC(=O)[C@@H](N)C(C)C)[C@@H](C)CC)CSSC[C@H](NC(=O)[C@H](CCCCN)NC(=O)CNC(=O)[C@H](C)NC(=O)[C@H](CO)NC(=O)[C@H](CCCCN)NC(=O)CNC1=O)C(=O)N[C@@H](CCSC)C(=O)N[C@@H](CC(N)=O)C(=O)NCC(=O)N[C@@H](CCCCN)C(=O)N3)C(=O)N[C@@H](CC(C)C)C(=O)N1CCC[C@H]1C(=O)N[C@@H](CCCCN)C(=O)N2 [Tf5] (H-VFINARCRGSPECLPKCKEAIGKSAGKCMNGKCKCYP-OH; disulfide 7-28, 13-33, 17-35)				90.2 ± 3.78	15.5	81.8 ± 4.29	116
